From patent US7501541B2, “Malonamides as orexin antagonists” (Hoffmann-La Roche Inc., priority 2007, dated 2009)
No end group written: not given here.

Tests used:
[1] = target: T1, human orexin-1 (hOX1) receptors (Homo sapiens, UniProt O43613); assay: Intracellular Ca2+ mobilization assay (FLIPR), CHO(dHFr-) cells expressing hOX1; assay type: cell-based; details: antagonism of orexin-A at EC80; Kb=IC50/(1+[A]/EC50); CHO(dHFr-)-OX1R cells
T1 construct: expressed in transfected cells
T1 sequence (O43613 1-425): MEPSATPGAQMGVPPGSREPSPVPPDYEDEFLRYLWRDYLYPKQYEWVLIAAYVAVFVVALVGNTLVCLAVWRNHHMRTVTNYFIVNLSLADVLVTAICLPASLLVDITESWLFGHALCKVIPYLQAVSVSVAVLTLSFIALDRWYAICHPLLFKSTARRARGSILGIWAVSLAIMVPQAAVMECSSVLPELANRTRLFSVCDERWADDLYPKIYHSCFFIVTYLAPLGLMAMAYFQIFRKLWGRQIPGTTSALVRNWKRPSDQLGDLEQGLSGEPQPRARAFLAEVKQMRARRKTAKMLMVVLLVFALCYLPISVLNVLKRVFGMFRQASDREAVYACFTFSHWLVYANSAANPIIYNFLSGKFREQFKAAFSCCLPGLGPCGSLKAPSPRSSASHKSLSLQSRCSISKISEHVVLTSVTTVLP
Method: (§1) Intracellular Ca^2+ Mobilization Assay
(§2) The Chinese Hamster Ovary (dHFr-) mutant cell line stably expressing human orexin-1 (hOX1) or human orexin-2 (hOX2) receptors were maintained in Dulbecco's Modified Eagle Medium (1X) with GlutaMax™ 1, 4500 mg/L D-Glucose and Sodium Pyruvate (Catalog No. 31966-021, Invitrogen, Carlsbad, Calif.), 5% dialyzed fetal calf serum (Catalog No. 26400-044), 100 μg/ml penicillin and 100 μg/ml streptomycin. The cells were seeded at 5×10^4 cells/well in the poly-D-lysine treated, 96-well, black/clear-bottomed plates (Catalog No. BD356640, BD Biosciences, Palo Alto, Calif.). 24 h later, the cells were loaded for 1 h at 37° C. with 4 μM Flou-4 acetoxymethyl ester (Catalog No. F-14202, Molecular Probes, Eugene, Oreg.) in FLIPR buffer (1×HBSS, 20 mM HEPES, 2.5 mM Probenecid). Hanks' Balanced Salt Solution (HBSS) (10×) (catalog No. 14065-049) and HEPES (1M) (catalog No. 15630-056) were purchased from Invitrogen, Carlsbad, Calif. Probenecid (250 mM) (catalog No. P8761) was from Sigma, Buchs, Switzerland. The cells were washed five times with FLIPR buffer to remove excess dye and intracellular calcium mobilization, [Ca^2+]i were measured using a Fluorometric Imaging Plate Reader (FLIPR-96, Molecular Devices, Menlo Park, Calif.) as described previously (Malherbe et al., Mol. Pharmacol., 64, 823-832, 2003). Orexin A (catalog No. 1455, Toris Cookson Ltd, Bristol, UK) was used as agonist. Orexin A ([…] stock solution in DMSO) was diluted in FLIPR buffer +0.1% BSA. The EC50 and EC80 values of orexin-A were measured daily from standard agonist concentration-response curves in CHO(dHFr-)-OX1R and -OX2R cell lines. All compounds were dissolved in 100% DMSO. Inhibition curves were determined by addition of 11 concentrations (0.0001-10 μM) of inhibitory compounds and using EC80 value of orexin-A as agonist (a concentration which gave 80% of max agonist response, determined daily). The antagonists were applied 25 min (incubation at 37° C.) before the application of the agonist. Responses were measured as peak increase in fluorescence minus basal, normalized to the maximal stimulatory effect induced by EC80 value of orexin-A or orexin-B. Inhibition curves were fitted according to the Hill equation: y=100/(1+(x/IC50)^nH), where nH=slope factor using Excel-fit 4 software (Microsoft). Kb values were calculated according to the following equation Kb=IC50/(1+[A]/EC50) where A is the concentration of agonist added which is very close to agonist EC80 value, and IC50 and EC50 values were derived from the antagonist inhibition and orexin-A or B agonist curves, respectively.

[2] = target: T2, human orexin-2 (hOX2) receptors (Homo sapiens, UniProt O43614); assay: Intracellular Ca2+ mobilization assay (FLIPR), CHO(dHFr-) cells expressing hOX2; assay type: cell-based; details: antagonism of orexin-A at EC80; Kb=IC50/(1+[A]/EC50); CHO(dHFr-)-OX2R cells
T2 construct: expressed in transfected cells
T2 sequence (O43614 1-444): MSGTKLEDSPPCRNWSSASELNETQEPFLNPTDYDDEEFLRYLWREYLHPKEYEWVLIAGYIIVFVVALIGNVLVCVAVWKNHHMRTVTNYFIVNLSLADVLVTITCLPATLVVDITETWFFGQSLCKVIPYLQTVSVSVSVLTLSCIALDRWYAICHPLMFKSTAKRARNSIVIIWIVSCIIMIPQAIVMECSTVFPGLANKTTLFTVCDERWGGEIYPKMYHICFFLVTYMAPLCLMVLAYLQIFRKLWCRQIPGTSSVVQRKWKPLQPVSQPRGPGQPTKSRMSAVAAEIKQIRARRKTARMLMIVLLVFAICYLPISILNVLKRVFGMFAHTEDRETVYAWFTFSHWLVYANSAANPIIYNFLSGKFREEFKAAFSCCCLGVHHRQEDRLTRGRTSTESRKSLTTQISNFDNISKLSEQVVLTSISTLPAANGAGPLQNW
Method: as §1, §2

REM sleep = details: rat, icv administration (Piper et al., 2000); cited from earlier work

Kb [1] [µM]	Kb [2] [µM]	Compound	reduces total REM sleep (REM sleep) [%]
0.292	0.0468	COc1ccc(N(CCc2ccc(C(F)(F)F)cc2)C(=O)C(C(=O)NCC2CC2)c2ccccc2)cc1OC (stereo not drawn) [Example 20, N-Cyclopropylmethyl-N′-(3,4-dimethoxy-phenyl)-2-phenyl-N′-[2-(4-trifluoromethyl-phenyl)-ethyl]-malonamide]	
0.245	0.245	COc1ccc(N(CCc2ccc(C(F)(F)F)cc2)C(=O)C(C(=O)NCc2cccnc2)c2ccccc2)cc1OC (stereo not drawn) [Example 24, N-(3,4-Dimethoxy-phenyl)-2-phenyl-N′-pyridin-3-ylmethyl-N-[2-(4-trifluoromethyl-phenyl)-ethyl]-malonamide]	
0.173	0.0278	COc1ccc(N(CCc2ccc(C(F)(F)F)cc2)C(=O)C(C(=O)NCC(F)F)c2ccccc2)cc1OC (stereo not drawn) [Example 21, N-(2,2-Difluoro-ethyl)-N′-(3,4-diemthoxy-phenyl)-2-phenyl-N′-[2-(4-trifluoromethyl-phenyl)-ethyl]-malonamide]	
0.439	0.0838	COc1ccc(N(CCc2ccc(C(F)(F)F)cc2)C(=O)C(C(=O)Nc2cccnc2)c2ccccc2)cc1OC (stereo not drawn) [Example 22, N-(3,4-Dimethoxy-phenyl)-2-phenyl-N′-pyridin-3-yl-N-[2-(4-trifluoromethyl-phenyl)-ethyl]-malonamide]	
0.723	0.0572	COc1ccc(N(CCc2ccc(C(F)(F)F)cc2)C(=O)C(C(=O)N(C)C)c2ccccc2)cc1Cl (stereo not drawn) [Example 58, N-(3-Chloro-4-methoxy-phenyl)-N′,N′-dimethyl-2-phenyl-N-[2-(4-trifluoromethyl-phenyl)-ethyl]-malonamide]	
0.238	0.023	COc1ccc(N(CCc2ccc(C(F)(F)F)cc2)C(=O)C(C(=O)NC2CCOCC2)c2ccccc2)cc1OC (stereo not drawn) [Example 23, N-(3,4-Dimethoxy-phenyl)-2-phenyl-N′-(tetrahydro-pyran-4-yl)-N-[2-(4-trifluoromethyl-phenyl)-ethyl]-malonamide]	
0.245	0.0523	CCCNC(=O)C(C(=O)N(CCc1ccc(C(F)(F)F)cc1)c1ccc(OC)c(OC)c1)c1ccccc1 (stereo not drawn) [Example 19, N-(3,4-Dimethoxy-phenyl)-2-phenyl-N′-propyl-N-[2-(4-trifluoromethyl-phenyl)-ethyl]-malonamide]	
0.295	0.055	COc1cc(N(CCc2ccc(C(F)(F)F)cc2)C(=O)C(C(=O)N(C)C)c2ccccc2)ccc1Cl (stereo not drawn) [Example 56, N-(4-Chloro-3-methoxy-phenyl)-N′,N′-dimethyl-2-phenyl-N-[2-(4-trifluoromethyl-phenyl)-ethyl]-malonamide]	

Second part, the compound before the results:

Compound	Kb [1] [µM]	Kb [2] [µM]	reduces total REM sleep (REM sleep) [%]
CNC(=O)C(C(=O)N(CCc1ccc(C(F)(F)F)cc1)c1ccc(OC)c(OC)c1)c1ccccc1 (stereo not drawn) [Example 1, N-(3,4-Dimethoxy-phenyl)-N′-methyl-2-phenyl-N-[2-(4-trifluoromethyl-phenyl)-ethyl]-malonamide]	0.16	0.0255	
CCCCNC(=O)C(C(=O)N(CCc1ccc(C(F)(F)F)cc1)c1ccc(OC)c(OC)c1)c1ccccc1 (stereo not drawn) [Example 3, N-Butyl-N′-(3,4-dimethoxy-phenyl)-2-phenyl-N′-[2-(4-trifluoromethyl-phenyl)-ethyl]-malonamide]		0.0419	
COc1ccc(N(CCc2ccc(C(F)(F)F)cc2)C(=O)C(C(=O)NC2CC2)c2ccccc2)cc1OC (stereo not drawn) [Example 18, N-Cyclopropyl-N′-(3,4-dimethoxy-phenyl)-2-phenyl-N′-[2-(4-trifluoromethyl-phenyl)-ethyl]-malonamide]	0.199	0.0197	
COc1ccc(N(CCc2ccc(C(F)(F)F)cc2)C(=O)C(C(N)=O)c2ccccc2)cc1OC (stereo not drawn) [Example 2, N-(3,4-Dimethoxy-phenyl)-2-phenyl-N-[2-(4-trifluoromethyl-phenyl)-ethyl]-malonamide]	0.127	0.0172	
COc1ccc(N(CCc2ccc(C(F)(F)F)cc2)C(=O)C(C(=O)N(C)CCc2ccccc2)c2ccccc2)cc1OC (stereo not drawn) [Example 14, N-(3,4-Dimethoxy-phenyl)-N′-methyl-N′-phenethyl-2-phenyl-N-[2-(4-trifluoromethyl-phenyl)-ethyl]-malonamide]	0.234	0.0141	
COCCNC(=O)C(C(=O)N(CCc1ccc(C(F)(F)F)cc1)c1ccc(OC)c(OC)c1)c1ccccc1 (stereo not drawn) [Example 5, N-(3,4-Dimethoxy-phenyl)-N′-[2-methoxy-ethyl)-2-phenyl-N-[2-(4-trifluoromethyl-phenyl)-ethyl]-malonamide]	0.229	0.0217	
CCNC(=O)C(C(=O)N(CCc1ccc(C(F)(F)F)cc1)c1ccc(OC)c(OC)c1)c1ccccc1 (stereo not drawn) [Example 17, N-(3,4-Dimethoxy-phenyl)-N′-ethyl-2-phenyl-N-[2-(4-trifluoromethyl-phenyl)-ethyl]-malonamide]	0.191	0.0299	
COc1ccc(N(CCc2ccc(C(F)(F)F)cc2)C(=O)C(C(=O)N(C)Cc2ccccc2)c2ccccc2)cc1OC (stereo not drawn) [Example 15, N-Benzyl-N′-(3,4dimethoxy-phenyl)-N-methyl-2-phenyl-N′-[2-(4-trifluoromethyl-phenyl)-ethyl]-malonamide]	0.166	0.0428	
COc1ccc(N(CCc2ccc(C(F)(F)F)cc2)C(=O)C(C(=O)Nc2ccc(F)cc2)c2ccccc2)cc1OC (stereo not drawn) [Example 16, N-(3,4-Dimethoxy-phenyl)-N′-(4-fluoro-phenyl)-2-phenyl-N-[2-(4-trifluoromethyl-phenyl)-ethyl]-malonamide]	0.252	0.0817	
COc1ccc(N(CCc2ccc(C(F)(F)F)cc2)C(=O)C(C(=O)NCc2ccc(C)cc2)c2ccccc2)cc1OC (stereo not drawn) [Example 13, N-(3,4-Dimethoxy-phenyl)-N′-(4-methyl-benzyl)-2-phenyl-N-[2-(4-trifluoromethyl-phenyl)-ethyl]-malonamide]	0.218	0.0968	
OX-A: orexin-A/hypocretin1, hypothalamic neuropeptide of 33 amino acids, agonist of OX1R and OX2R (QPLPDCCRQKTCSCRLYELLHGAGNHAAGILTL; ends and bridges not checked; cysteine pairing not given here; UniProt O43612 34-66, looked up)			84
